Four compounds from patent US10758542B2, “Substituted pyrazolo[l,5-a]pyrimidine compounds as Trk kinase inhibitors” (Array BioPharma Inc., priority 2009, dated 2020) can be followed below.

A word on the inhibition: it is the change of the read-out against control, counted positive when it falls.

For this experiment, the target named is Human Jak2 kinase domain (Homo sapiens (Human), UniProt O60674). In words: Jak2 inhibition assay (Omnia kinase). The experiment is classed as biochemical. As to conditions: read-out: Jak2 Enzyme (% inhibition at 1000 nM), Table 1; at 1000 nM test compound. The text has this: The assays described in Examples C, D, E and F for the determination of JAK1, JAK2, JAK3 and Tyk2 kinase activity, respectively, utilized the Omnia® Kinase fluorescence peptide substrate-based technology (Invitrogen). The specific components of the assay mixture are described in Examples C, D and E. […] Two-μL aliquots of these were transferred to a fresh plate for a ten-fold intermediate dilution with assay buffer. […] Human Jak2 kinase domain comprising amino acids 808-1132 was purchased from Invitrogen Corporation, Carlsbad, Calif.
Sequence of Human Jak2 kinase domain (O60674 808-1132): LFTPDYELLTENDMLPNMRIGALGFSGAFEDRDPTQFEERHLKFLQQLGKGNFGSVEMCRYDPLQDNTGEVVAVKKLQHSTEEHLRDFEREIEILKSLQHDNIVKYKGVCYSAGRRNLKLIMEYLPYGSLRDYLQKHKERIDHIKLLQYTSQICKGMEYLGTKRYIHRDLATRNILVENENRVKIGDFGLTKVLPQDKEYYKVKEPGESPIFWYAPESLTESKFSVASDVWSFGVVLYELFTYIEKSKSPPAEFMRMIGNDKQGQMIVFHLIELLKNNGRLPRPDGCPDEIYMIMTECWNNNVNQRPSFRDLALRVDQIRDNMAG

Take `CC1(O)CCC(NC(=O)c2cnn3ccc(N4CCC[C@@H]4c4cc(F)ccc4F)nc23)CC1` (stereo partly drawn) [Example 51, 5-((R)-2-(2,5-difluorophenyl)pyrrolidin-1-yl)-N-(4-hydroxy-4-methylcyclohexyl)pyrazolo[1,5-a]pyrimidine-3-carboxamide]: the inhibition at 1 µM stood at 82.5%.

Regarding `C[C@@H](NC(=O)c1cnn2ccc(N3CCC[C@@H]3c3cncc(F)c3)nc12)C(F)(F)F` [Example 129, 5-((R)-2-(5-fluoropyridin-3-yl)pyrrolidin-1-yl)-N-((R)-1,1,1-trifluoropropan-2-yl)pyrazolo[1,5-a]pyrimidine-3-carboxamide], the inhibition at 1 µM is 25.2%.

Turning to `O=C(N[C@@H]1CCC[C@H]1O)c1cnn2ccc(N3CCC[C@@H]3c3cncc(F)c3)nc12` [Example 133, 5-((R)-2-(5-fluoropyridin-3-yl)pyrrolidin-1-yl)-N-((1R,2R)-2-hydroxycyclopentyl)pyrazolo[1,5-a]pyrimidine-3-carboxamide], the inhibition at 1 µM turned out to be 14.4%.

Consider `CCc1ncc(F)cc1[C@H]1CCCN1c1ccn2ncc(C(=O)N[C@H]3CC[C@H](O)C3)c2n1` [Example 200, 5-((R)-2-(2-ethyl-5-fluoropyridin-3-yl)pyrrolidin-1-yl)-N-((1S,3S)-3-hydroxycyclopentyl)pyrazolo [1,5-a]pyrimidine-3-carboxamide], for which the inhibition at 1 µM is 12.5%.
